Source: patent publication US12453785B2, “Macrocyclic chelators and methods of use thereof” (JANSSEN BIOTECH, INC., priority 2019, dated 2025)
“Also recorded” adds a separate entry of the source.

How the values were obtained:
Type in all cases: physicochemical
[1] = ^225Ac(III) chelation / labeling, iTLC-SG analysis; settings: pH ~6.5; for chelated Ac-225 (iTLC): free chelator (2 mg/mL 3 μL; ethoxylmethyl isomers 1 mg/mL 1 μL), 30 μCi ^225Ac, 37° C. 2 h; for free ^225Ac by iTLC-SG before DTPA challenge / free Ac-225 at the solvent front of the iTLC-SG: free chelator; for free ^225Ac by iTLC-SG before DTPA challenge: high ^225Ac/chelator ratio (50 μCi), room temperature 1.5-2 hr; for free Ac-225 at the solvent front of the iTLC-SG: low ^225Ac/chelator ratio (30 μCi), room temperature 1-2 hr
[2] = DTPA challenge of ^225Ac complexes, iTLC-SG; settings: 30 min; for chelated Ac-225 (iTLC) after DTPA: reaction mixture with 10 mM DTPA (pH 6.5); for free ^225Ac by iTLC-SG after DTPA challenge / free Ac-225 at the solvent front of the iTLC-SG after DTPA challenge: free chelator, 10 mM DTPA; for free ^225Ac by iTLC-SG after DTPA challenge: high ^225Ac/chelator ratio (50 μCi); for free Ac-225 at the solvent front of the iTLC-SG after DTPA challenge: low ^225Ac/chelator ratio
Protocol: DTPA challenge: 0.5 μL of the reaction mixture was mixed with 15 μL of 10 mM DTPA solution and the mixture was incubated for 30 min.
DTPA challenge: 10 μL of fraction #3 collected after PD-10 column was mixed with 15 μL of 10 mM DTPA solution (pH 6.5), and incubated for 30 min.
0.5 μL of reaction mixture was mixed with 15 μL 10 mM DTPA (pH 6.5) and incubated for 30 min.

[3] = Chelation test with Lanthanum (III) (HPLC, LCMS); settings: La(NO3)3, room temperature
Protocol: HPLC method: XBridge C18 3.5 μm 150×4.6 mm, 100 Å column; Mobile phase A: 0.1% TFA in H2O, B: 0.1% TFA in ACN; gradient 10% to 30% B in 0-20 min, gradient 30% to 100% B in 20-20.1 min, isocratic at 100% B in 20.1-25 min, gradient 100% to 10% B in 25-25.1 min, isocratic at 10% B in 25.1-30 min; postrun 3 min; flow rate 1 mL/min; column temperature 30° C.; injection volume 5 uL. Synthesis and Characterization of H2bp18c6-Benzyl-Phenyl
An aqueous solution of H2bp18c6-benzyl-isopentyl in water (˜3 mg/mL=˜5 mM, 20 μL, 0.1 μmol) was treated with La(NO3)3 (10 mM in metal free water, 50 μL, 0.5 μmol). An aqueous solution of H2bp18c6-benzyl-phenyl in water (˜3 mg/mL=˜5 mM, 20 μL, 0.1 μmol) was treated with La(NO3)3 (10 mM in metal free water, 50 μL, 0.5 μmol). After thorough mixing, each solution was analyzed by LCMS and HPLC to determine whether complexes of the chelator and La^3+ formed.
Complex formation was also confirmed by LCMS.

| SMILES | chelated Ac-225 (iTLC) [1] [%] | chelated Ac-225 (iTLC) after DTPA [2] [%] | also measured |
| --- | --- | --- | --- |
| O=C(O)c1cccc(CN2CCOCCOCCN(Cc3cccc(C(=O)O)n3)CCO[C@@H](CO)COCC2)n1 (single isomer, unassigned) [H2bp18c6-off Macrocycle-hydroxylmethyl isomer I] | 99 | 99 |  |
| CCOC[C@@H]1COCCN(Cc2cccc(C(=O)O)n2)CCOCCOCCN(Cc2cccc(C(=O)O)n2)CCO1 (single isomer, unassigned) [H2bp18c6-off Macrocycle-ethoxylmethyl isomer II] | 99 | 99 |  |
| O=C(O)c1cccc(CN2CCOCCOCCN(Cc3cccc(C(=O)O)n3)CCO[C@@H]3CCCC[C@@H]3OCC2)n1 [H2bp18c6-cis-cyclohexyl-fused Macrocycle] | 99 | 99 |  |
| O=C(O)c1cccc(CN2CCOCCOCCN(Cc3cccc(C(=O)O)n3)CCO[C@@H]3CCC[C@@H]3OCC2)n1 | 99 | 99 |  |
| O=C(O)c1cccc(CN2CCOCCOCCN(C(c3ccccc3)c3cccc(C(=O)O)n3)CCOCCOCC2)n1 (centres unmarked) [H2bp18c6-benzyl-phenyl] |  |  | chelation with La^3+ (shift in HPLC peak retention time) [3]: rapid and stoichiometric chelation; free ^225Ac by iTLC-SG before DTPA challenge [1]: No free ^225Ac was detected; free Ac-225 at the solvent front of the iTLC-SG [1]: No free ^225Ac ion was detected; also recorded: No radioactivity was observed at the solvent front; free ^225Ac by iTLC-SG after DTPA challenge [2]: No free ^225Ac was detected; free Ac-225 at the solvent front of the iTLC-SG after DTPA challenge [2]: No free ^225Ac was detected after DTPA challenge |
| O=C(O)c1cccc(CN2CCOCCOCCN(Cc3cccc(C(=O)O)n3)CCO[C@@H]3CCCC[C@H]3OCC2)n1 | 99 | 99 |  |
| O=C(O)c1cccc(CN2CCOCCOCCN(Cc3cccc(C(=O)O)n3)CCO[C@H](CO)COCC2)n1 (single isomer, unassigned) [H2bp18c6-off Macrocycle-hydroxylmethyl isomer II] | 99 | 99 |  |
| CCOC[C@H]1COCCN(Cc2cccc(C(=O)O)n2)CCOCCOCCN(Cc2cccc(C(=O)O)n2)CCO1 (single isomer, unassigned) [H2bp18c6-off Macrocycle-ethoxylmethyl isomer I] | 99 | 99 |  |
| CC(C)CCC(c1cccc(C(=O)O)n1)N1CCOCCOCCN(Cc2cccc(C(=O)O)n2)CCOCCOCC1 (centres unmarked) |  |  | chelation with La^3+ (shift in HPLC peak retention time) [3]: rapid chelation; chelation with La^3+ (shift in HPLC peak retention time) ([3]; listed as isopentane-H2bp18c6): rapid and stoichiometric chelation; free ^225Ac by iTLC-SG before DTPA challenge [1]: No free ^225Ac was detected; free Ac-225 at the solvent front of the iTLC-SG [1]: No radioactivity was observed at the solvent front; free ^225Ac by iTLC-SG after DTPA challenge [2]: No free ^225Ac was detected; free Ac-225 at the solvent front of the iTLC-SG after DTPA challenge [2]: No radioactivity was observed at the solvent front |
| O=C(NCCC(=O)N1Cc2ccccc2C#Cc2ccccc21)c1ccc(C(c2cccc(C(=O)O)n2)N2CCOCCOCCN(Cc3cccc(C(=O)O)n3)CCOCCOCC2)cc1 (centres unmarked) [H2bp18c6-benzyl-phenyl-DBCO] |  |  | free Ac-225 at the solvent front of the iTLC-SG [1]: No radioactivity activity was observed at the solvent front; free Ac-225 at the solvent front of the iTLC-SG after DTPA challenge [2]: No radioactivity was detected at the solvent front |
| O=C(O)c1cccc(CN2CCOCCOCCN(Cc3cccc(C(=O)O)n3)CCO[C@@H]3CCC[C@H]3OCC2)n1 | 99 | 99 |  |
